Legend:
[1] = tested on: patient exhibiting similar symptoms with respect to pulmonary hypertension; experiment: Examples 6-11: procedure of Example 1 repeated with zonisamide or acetazolamide substituted for topiramate; type: in vivo, human
[2] = tested on: patients exhibiting similar symptoms with respect to pulmonary hypertension; experiment: Examples 12-17: procedures of Examples 2 through 5 repeated with zonisamide or acetazolamide substituted for topiramate; type: in vivo, human
Type V phosphodiesterase = Type V phosphodiesterase (Homo sapiens, UniProt O76074); settings: comparison with avanafil (and sildenafil); cited from earlier work
[3] = tested on: patient with elevated pulmonary artery pressure (pulmonary hypertension); experiment: Example 1 case report: patient with mildly elevated pulmonary artery pressure treated with bupropion and topiramate; type: in vivo, human
Protocol: They were 66″ tall, weight 282 lbs, BMI 46, initial BP 118/80. They had 2+ edema of both ankles, clear lungs, and a systolic murmur along the left sternal border, grade II/VI.
They were started on atorvastatin 10 mg daily as well as bupropion 150 mg daily and topiramate 200 mg daily along with a low fat, low carbohydrate diet and exercise. […] They lost weight continuously on the program and 4 months later had lost 20 lbs. […] After six months, the patient temporarily discontinued the medications. Within a few days, even though their weight was the same, their chest pressure and shortness of breath on exertion returned. On resumption of the treatment, the symptoms resolved within a few days.

[4] = tested on: patient with known pulmonary hypertension; experiment: Example 4 case report: patient with known pulmonary hypertension and sleep apnea treated with bupropion, topiramate and phentermine; type: in vivo, human; settings: topiramate 100 mg daily with bupropion 300 mg
Protocol: The fourth patient was a person with obesity, sleep apnea on CPAP, known pulmonary hypertension with PA pressure estimated at 76 mm Hg by echocardiogram, valvular heart disease (mild-moderate tricuspid and mitral regurgitation), depression and hypertension. They smoked just under half pack of cigarettes per day and was a CO2 retainer by ABG's with a PCO2 of 54 mm Hg on room air. They were short of breath with minimal exertion. Their baseline medications were furosemide 80 mg daily, potassium chloride 20 mEq daily, lisinopril 10 mg daily, carvedilol 25 mg BID, escitalopram 10 mg daily, alprazolam 0.5 mg TID, and nightly oxygen. They were 68″ tall, weight 284 lbs, BMI 43½, initial BP 122/76. They had 1+ edema of both lower legs and was short of breath on exertion.
They were treated with aspirin 81 mg coated daily, bupropion 300 mg daily, topiramate 100 mg daily, phentermine 5 mg daily, along with a low fat, low carbohydrate diet and light exercise. By the first 4 weeks of follow-up, they had lost 17 lbs and was breathing much better. […] They were still smoking cigarettes occasionally. They had lost 38 lbs. Their blood pressure was 110/70 on only lisinopril 10 mg daily. Furosemide and carvedilol had been gradually discontinued due to improved edema, blood pressure, and breathing. An echocardiogram performed at three months into the program was mostly unchanged from their prior echocardiogram except that the pulmonary artery pressure was reported as normal. This change was consistent with their clinical picture.

[5] = tested on: patient with probable mild pulmonary hypertension; experiment: Example 3 case report: patient with probable mild pulmonary hypertension treated with phentermine and topiramate; type: in vivo, human
Protocol: The third patient was a person with obesity, hypertension, elevated cholesterol, heart murmur and dyspnea on exertion. Their medications were atorvastatin 10 mg daily, captopril 12.5 mg daily, trazodone 50 mg daily, spironolactone 50 mg daily, and bupropion 150 mg daily. They were 64″ tall, weight 319 lbs, BMI 55, initial BP 148/76.
They were treated with phentermine 15 mg daily and topiramate 200 mg daily along with a low fat, low carbohydrate diet and exercise. They were instructed to stop both the spironolactone and captopril since this weight loss treatment results in marked lowering of blood pressure in most patients. […] Blood pressure one week later was 140/86 and weight 317 lbs.

[6] = tested on: patient with pulmonary hypertension; experiment: Example 5 case report: patient with COPD and pulmonary hypertension treated with phentermine and topiramate; type: in vivo, human; settings: topiramate 100 mg daily with phentermine 15 mg daily
Protocol: The fifth patient was a person with obesity, diabetes, hypertension, hypothyroidism, elevated cholesterol, COPD, and pulmonary hypertension. […] They had stopped smoking 1PPD about 10 years previously. Their baseline medications were verapamil 240 mg daily, losartan-HCTZ 50-12.5 daily, levothyroxine 0.125 mg daily, Pulmicort […] 2 puffs twice daily, Foradil powder […] twice daily, metformin 500 mg twice daily, atorvastatin 10 mg daily, fluticasone nasal spray 50 mcg 2 puffs daily and vitamins. They were short of breath with minimal exertion. They were 67″ tall, weight 228 lbs, BMI 36, initial BP 138/70.
They were treated with phentermine 15 mg daily and topiramate 100 mg daily. Three years into treatment, their fasting glucose is 106 off metformin compared with 114 on metformin at baseline, their blood pressure is 115/60 on valsartan 80 mg daily and diltiazem CD 120 mg daily (changed from verapamil because of constipation). Their weight has been stable for six months in the low 180's.

[7] = tested on: patient with pulmonary hypertension; experiment: Example 2 case report: patient with pulmonary hypertension treated with phentermine and topiramate; type: in vivo, human; settings: topiramate 200 mg daily with phentermine 15 mg daily
Protocol: The second patient was a person with obesity, hypothyroidism, hypertension, valvular heart disease, elevated cholesterol and depression. Their medications were levothyroxine 50 mcg daily, metoprolol 50 mg daily, venlafaxine 37.5 mg daily, progesterone 100 mg daily, esterified estrogens 1.25 mg daily, and methyltestosterone 2.5 mg daily. They were 63″ tall, weight 178 lbs, BMI 32, initial BP 120/78. They had trace edema of both ankles and a systolic murmur of I/VI along the left sternal border. […] A comment on the report stated that this was a slight increase in pulmonary pressure compared with an echocardiogram taken seven months earlier.
They were treated with phentermine 15 mg daily and topiramate 200 mg daily along with a low fat, low carbohydrate diet and exercise. Metoprolol was discontinued after four months due to low blood pressure. Eight months after treatment started, their weight was 165 lbs, BP was 122/76, and they had no edema. […] No MR was seen.

[8] = tested on: patients with pulmonary hypertension; experiment: Summary of the five patients of Examples 1-5; type: in vivo, human
Description: However, the improvement in pulmonary pressures appeared to be independent of weight loss in these patients.

CC(=O)Nc1nnc(S(N)(=O)=O)s1 [acetazolamide]
results relative to Example 1 ([1]; Example 9, 100 mg acetazolamide substituted for the topiramate): Substantially the same results
results relative to Example 1 ([1]; Example 10, 250 mg acetazolamide substituted for the topiramate): Substantially the same results
results relative to Example 1 ([1]; Example 11, 500 mg acetazolamide substituted for the topiramate): Substantially the same results
results relative to Examples 2 through 5 ([2]; 100 mg, 250 mg, and 500 mg acetazolamide substituted for topiramate): Substantially the same results

CCCc1nn(C)c2c(=O)[nH]c(-c3cc(S(=O)(=O)N4CCN(C)CC4)ccc3OCC)nc12 [sildenafil]
potency as phosphodiesterase inhibitor relative to avanafil (Type V phosphodiesterase): approximately twice as potent as avanafil

CC1(C)O[C@@H]2[C@@H](CO[C@@]3(COS(N)(=O)=O)OC(C)(C)O[C@@H]23)O1 [topiramate]
chest pressure and shortness of breath on exertion after discontinuing the medications ([3]; medications temporarily discontinued after six months, within a few days, weight the same): returned
exercise tolerance ([3]; person, topiramate 200 mg daily with bupropion 150 mg daily, atorvastatin 10 mg daily, diet and exercise, two weeks after start): markedly improved
symptoms on resumption of the treatment ([3]; resumption of topiramate 200 mg/bupropion 150 mg treatment, within a few days): resolved
chest pressure and shortness of breath on exertion ([3]; topiramate 200 mg daily with bupropion 150 mg daily, atorvastatin 10 mg daily, two weeks after start): gone
weight lost ([3]; topiramate 200 mg daily with bupropion 150 mg daily, atorvastatin, diet and exercise, 4 months, baseline 282 lbs): 20 lbs
pulmonary pressures (echocardiogram) ([3]; topiramate 200 mg daily with bupropion 150 mg daily, 2 weeks after start of treatment, baseline 36 mm Hg): normal
weight lost ([4]; person, phentermine 5 mg, aspirin 81 mg daily, diet, light exercise, first 4 weeks, baseline 284 lbs): 17 lbs
blood pressure ([4]; phentermine 5 mg daily, four months, on only lisinopril 10 mg daily, baseline 122/76): 110/70
pulmonary artery pressure (echocardiogram) ([4]; phentermine 5 mg daily, three months, baseline estimated 76 mm Hg): normal
breathing ([4]; phentermine 5 mg, aspirin 81 mg daily, first 4 weeks): much better
weight lost ([4]; phentermine 5 mg, aspirin 81 mg daily, four months): 38 lbs
clinical status ([4]; phentermine 5 mg, aspirin 81 mg daily, four months, able to exercise normally without shortness of breath): clinically markedly improved
echocardiogram findings of pulmonary hypertension ([5]; person, topiramate 200 mg daily with phentermine 15 mg daily (bupropion 150 mg daily at baseline), three weeks, before significant weight loss, baseline probable mild pulmonary hypertension): no findings of pulmonary hypertension
weight ([5]; topiramate 200 mg daily with phentermine 15 mg daily, four weeks, baseline 319 lbs): 317 lbs
blood pressure ([5]; topiramate 200 mg daily with phentermine 15 mg daily, four weeks, spironolactone and captopril stopped, baseline 148/76): 140/86
fasting glucose ([6]; person, three years, off metformin, baseline 114 on metformin): 106
pulmonary pressures (echocardiogram) ([6]; 30 months into treatment, baseline 45-50 mm Hg): normal
symptoms ([6]; exercising more without shortness of breath): symptomatically much better
weight ([6]; three years, stable for six months, baseline 228 lbs): low 180's
blood pressure ([6]; three years, on valsartan 80 mg and diltiazem CD 120 mg daily, baseline 138/70): 115/60
weight ([7]; person, diet and exercise, eight months, baseline 178 lbs): 165 lbs
edema ([7]; eight months, baseline trace edema of both ankles): no edema
BP ([7]; eight months, metoprolol discontinued, baseline 120/78): 122/76
pulmonary artery pressure (echocardiogram) ([7]; nine months on treatment, baseline 39 mm Hg): 33 mm Hg
mitral regurgitation (MR, echocardiogram) ([7]; nine months on treatment, baseline mild MR): No MR
tricuspid regurgitation (echocardiogram) ([7]; nine months on treatment, baseline moderate TR): mild
symptomatic improvement ([8]; all patients): symptomatic improvement in all patients
improvement in pulmonary hypertension ([8]; topiramate with phentermine and/or bupropion, diet and weight loss program): surprising improvement

NS(=O)(=O)Cc1noc2ccccc12 [zonisamide]
results relative to Example 1 ([1]; Example 6, 25 mg zonisamide substituted for the topiramate): Substantially the same results
results relative to Example 1 ([1]; Example 7, 50 mg zonisamide substituted for the topiramate): Substantially the same results
results relative to Example 1 ([1]; Example 8, 100 mg zonisamide substituted for the topiramate): Substantially the same results
results relative to Examples 2 through 5 ([2]; 25 mg, 50 mg, and 100 mg zonisamide substituted for topiramate): Substantially the same results
